The values that follow come from patent US5475010A, “7'-amino-naphthazarin antibiotic derivatives” (Gruppo Lepetit S.p.A., priority 1991, dated 1995).

Values after ≈ are worked out from the molar mass of the structure shown. Read-outs that look alike come from different tables or passages of the source.

Assay [1] concerns Streptococcus pneumonieae UC 41. Description: MIC by broth microdilution, Streptococcus pneumoniae. The assay is classed as cell-based. Background: Dilution methods test growth across graded concentrations, often in twofold steps.
Assay [2] concerns Escherichia coli SKF 12140. Briefly: MIC by broth microdilution, Escherichia coli. It counts as cell-based. Conditions: SKF12140.
Assay [3] deals with Enterococcus faecalis ATCC 7080. Description: MIC by broth microdilution, Enterococcus faecalis. It counts as cell-based.
Assay [4] concerns Tricophyton mentagrophytes. Briefly: MIC by broth microdilution, Trichophyton mentagrophytes. Conditions: 72 h. It counts as cell-based.
Assay [5] has as its system Neisseria gonorrhoeae ISM 68/126. Description: MIC by broth microdilution, Neisseria gonorrhoeae. It counts as cell-based. Conditions: ISM68/126, Table 2, internal code 997, approx. 10^4 cfu/ml, GC Base broth + 1% IsoVitaleX, 37° C., 48 h, 5% CO2.
For assay [6], the system named is Bacteroides fragiles ATCC 9689. Description: MIC by broth microdilution, Bacteroides fragilis. The assay is classed as cell-based. The settings on record: ATCC9689, Table 2, internal code 1010, approx. 10^4 cfu/ml, Wilkins-Chalgren broth, 37° C., 48 h, N2-CO2-H2 (80:10:10).
Assay [7] relates to Streptococcus pyogenes C 203. Description: MIC by broth microdilution, Streptococcus pyogenes. The assay is classed as cell-based.
For assay [8], the system named is Propionibacterium acnes ATCC 6919. Briefly: MIC by broth microdilution, Propionibacterium acnes. It counts as cell-based. The settings on record: Cutibacterium acnes, ATCC6919; Table 2; internal code 1014; approx. 10^4 cfu/ml; Wilkins-Chalgren broth; 37° C., 48 h, N2-CO2-H2 (80:10:10); read-out: MIC.
In assay [9] the test system is Staphilococcus haemolyticus (clin. isolate). Briefly: MIC by broth microdilution, Staphylococcus haemolyticus. The assay is classed as cell-based. Conditions: Table 2, internal code 602, approx. 10^4 cfu/ml, Iso-Sensitest broth, 37° C., 20-24 h, air, read-out: MIC.
In assay [10] the test system is Staphilococcus epidermidis ATCC 12228. Briefly: MIC by broth microdilution, Staphylococcus epidermidis. The assay is classed as cell-based. Conditions: ATCC12228, Table 2, internal code 147, approx. 10^4 cfu/ml, Iso-Sensitest broth, 37° C., 20-24 h, air, read-out: MIC.
Assay [11] relates to Proteus vulgaris X19H ATCC 881. Briefly: MIC by broth microdilution, Proteus vulgaris. Conditions: ATCC881. It counts as cell-based.
Assay [12] relates to Pseudomonas aeruginosa ATCC 10145. Briefly: MIC by broth microdilution, Pseudomonas aeruginosa. It counts as cell-based. The settings on record: ATCC10145, Table 2, internal code 4, approx. 10^4 cfu/ml, Iso-Sensitest broth, 37° C., 20-24 h, air.
Assay [13] deals with Haemophilus influenzae type b ATCC 19418. Briefly: MIC by broth microdilution, Haemophilus influenzae. The assay is classed as cell-based. The settings on record: ATCC19418, Table 2, internal code 970, approx. 10^4 cfu/ml, Brain Heart infusion broth + 1% Supplement C, 37° C., 48 h, 5% CO2.
Assay [14] concerns Candida albicans SKF 2270. Description: MIC by broth microdilution, Candida albicans. It counts as cell-based. The settings on record: Table 2; internal code 145; approx. 10^4 cfu/ml; buffered Yeast Nitrogen Base broth + glucose + L-asparagine; 37° C., 20-24 h, air.
In assay [15] the test system is Staphilococcus aureus Tour. Description: MIC by broth microdilution, Staphylococcus aureus Tour. The assay is classed as cell-based. The settings on record: Iso-Sensitest broth, 37° C., 20-24 h, air.
For assay [16], the system named is Gram-positive and Gram-negative bacteria. Conditions: in vitro, known / U.S. Pat. No. 3,914,257, cited from earlier work.
In assay [17] the test system is fungi, including filamentous fungi (e.g., Trichophyton mentarophytes) and yeasts (e.g., Candida albicans). Conditions: in vitro; U.S. Pat. No. 3,914,257; cited from earlier work.
Setting [18] is: UC41, Table 2, internal code 44, approx. 10^4 cfu/ml, Todd Hewitt broth, 37° C., 20-24 h, air, read-out: MIC.
[19] abbreviates: Table 2, internal code 165, + 30% bovine serum.
The mark [20] stands for this setting: ATCC7080, Table 2, internal code 149, approx. 10^4 cfu/ml, Iso-Sensitest broth, 37° C., 20-24 h, air, read-out: MIC.
Where [21] appears, read: Table 2, internal code 165, inoculum 10^6 cfu/ml.
Setting [22] is: Table 2, internal code 165, inoculum approx. 10^4 cfu/ml.

`CNC1=CC(=O)c2c(O)c3c(c(O)c2C1=O)OC1(C3)CC(O)c2cc3cc(C(=O)OC)oc(=O)c3c(O)c2O1` (centres unmarked) [Example 14, 7'-methylamino purpuromycin]: the MIC in assay [1] (setting [18]) is 0.016 µg/mL (≈ 0.0298 µM); in assay [2], over 128 µg/mL; in [3] (ATCC7080), 0.03 µg/mL (≈ 0.0558 µM); in [4] (Table 2, internal code 634, 1% (v/v) suspension of mycelia and conidia, YM broth, 30° C., air, read-out: MIC) it was at most 0.13 µg/mL; in assay [5] it was 0.06 µg/mL; in [6] it was 0.03 µg/mL (≈ 0.0558 µM). Besides, the MIC was 0.03 µg/mL (≈ 0.0558 µM) in assay [7] (C203); 0.008 µg/mL (≈ 0.0149 µM) in [8]; 0.016 µg/mL (≈ 0.0298 µM) in [9]; 0.008 µg/mL (≈ 0.0149 µM) in assay [10]; over 128 µg/mL in assay [11]; over 128 µg/mL in assay [12]. Further, the MIC in assay [13] was found to be 0.13 µg/mL; in assay [14] it was 2 µg/mL; in assay [15] (setting [19]) it was 0.25 µg/mL; in [15] (Table 2, internal code 165, inoculum 10^6 cfu/ml, read-out: MIC), 0.06 µg/mL (≈ 0.112 µM); in [15] (Table 2, internal code 165, inoculum approx. 10^4 cfu/ml, read-out: MIC), 0.016 µg/mL (≈ 0.0298 µM).

Consider `COC(=O)c1cc2cc3c(c(O)c2c(=O)o1)OC1(Cc2c(O)c4c(c(O)c2O1)C(=O)C(OC)=CC4=O)CC3O` (centres unmarked) [Purpuromycin, purpuromycin], for which the “antimicrobial activity against Gram-positive and Gram-negative bacteria” value in assay [16] is “known antimicrobial agents against Gram-positive and Gram-negative bacteria”; in assay [16] (listed as purpuromycin) it was “active in vitro”. Further, the activity against fungi entry in [17] is “active in vitro”.

On to `CCCNC1=CC(=O)c2c(O)c3c(c(O)c2C1=O)OC1(C3)CC(O)c2cc3cc(C(=O)OC)oc(=O)c3c(O)c2O1` (centres unmarked) [Example 12, 7'-propylamino purpuromycin], for which the MIC in assay [1] (UC41) was 0.03 µg/mL (≈ 0.0531 µM); in [2], over 128 µg/mL; in assay [3] (setting [20]), 0.06 µg/mL (≈ 0.106 µM); in assay [4] it was 128 µg/mL (≈ 226 µM); in assay [5], 0.06 µg/mL; in [6] it was 0.03 µg/mL (≈ 0.0531 µM). Moreover, the MIC in assay [7] (C203, Table 2, internal code 49, approx. 10^4 cfu/ml, Todd Hewitt broth, 37° C., 20-24 h, air, read-out: MIC) amounted to 0.13 µg/mL (≈ 0.23 µM); in assay [9], 0.06 µg/mL (≈ 0.106 µM); in [10], 0.016 µg/mL (≈ 0.0283 µM); in assay [11], 128 µg/mL (≈ 226 µM); in [12], 128 µg/mL (≈ 226 µM); in assay [13], 0.13 µg/mL. Further, the MIC in assay [14] came out at 64 µg/mL; in [15] (setting [19]), 2 µg/mL; in assay [15] (setting [21]), 0.03 µg/mL (≈ 0.0531 µM); in assay [15] (setting [22]), 0.03 µg/mL (≈ 0.0531 µM).

On to `COC(=O)c1cc2cc3c(c(O)c2c(=O)o1)OC1(Cc2c(O)c4c(c(O)c2O1)C(=O)C(NCc1ccccc1)=CC4=O)CC3O` (centres unmarked) [Example 8], for which the MIC is 0.06 µg/mL (≈ 0.0978 µM) in assay [1] (setting [18]); over 128 µg/mL in assay [2]; 4 µg/mL (≈ 6.52 µM) in assay [3] (setting [20]); over 128 µg/mL in [4]; 0.25 µg/mL in assay [5]; 1 µg/mL (≈ 1.63 µM) in [7] (C203). The MIC in assay [9] was 0.13 µg/mL (≈ 0.212 µM); in assay [10], 0.13 µg/mL (≈ 0.212 µM); in [11], over 128 µg/mL; in assay [12], over 128 µg/mL; in [15] (Table 2, internal code 165, + 30% bovine serum, read-out: MIC), 32 µg/mL; in assay [15] (setting [21]), 1 µg/mL (≈ 1.63 µM). This molecule came in with an MIC in [15] (setting [22]) of 0.5 µg/mL (≈ 0.815 µM).

On to `COC(=O)c1cc2cc3c(c(O)c2c(=O)o1)OC1(CC3)Cc2c(O)c3c(c(O)c2O1)C(=O)C(OC)=CC3=O` (centres unmarked) [γ-Rubromycin], for which, in assay [16], the “antimicrobial activity against Gram-positive and Gram-negative bacteria” value is “known antimicrobial agents against Gram-positive and Gram-negative bacteria”.
